Results as given in patent publication US20250170101A1, “MONOACYLGLYCEROL LIPASE INHIBITORS AND USE THEREOF FOR THE TREATMENT AND MANAGEMENT OF PAIN AND RELATED CONDITIONS” (Psy Therapeutics, Inc., priority 2021, published 2025).

Experiment: Pharmacokinetic study of compounds in mice, Example 25
Assay type: in vivo, male C57BL/6 mice
Details: Brain, Oral, 5 mg/kg
Protocol: Healthy male C57BL/6 mice (8-12 weeks old) weighing between 17 to 35 g were procured from Global, India. Temperature and humidity were maintained at 22±3° C. and 30-70%, respectively and illumination was controlled to give a sequence of 12 hr light and 12 hr dark cycle. Temperature and humidity were recorded by auto-controlled data logger system. All the animals were provided laboratory rodent diet. Reverse osmosis water treated with ultraviolet light was provided ad libitum.
Protocol A: Twenty-four male mice were divided into two groups as; Group 1: 30 mg/kg/IP; Plasma and brain; Number of animals=12; Animal #1-12. Group 2: 30 mg/kg/PO; Plasma and brain; Number of animals=12; Animal #13-24. […] All samples were processed for analysis by protein precipitation using acetonitrile and analyzed with fit-for-purpose LC/MS/MS method (LLOQ—2.02 ng/mL for plasma and 6.06 ng/g for brain). Pharmacokinetic parameters were calculated using the non-compartmental analysis tool of Phoenix WinNonlin®.
Protocol B: Thirty six mice were included into the study and divided in to three groups as Group 1 (n=12), Group 2 (n=12) and Group 3 (n=12) with n=2 mice per time-point design. […] Plasma and brain samples were quantified by fit-for-purpose LC-MS/MS method (LLOQ: 1.01 ng/mL for plasma and 2.02 ng/mL for brain). […]

O=C(c1cc(O)ccc1F)N1CC2(CC(n3cc(C(F)(F)F)c(-c4ccccc4F)n3)C2)C1 (single isomer, unassigned) [Compound 473, (2-fluoro-5-hydroxyphenyl){6-[3-(o-fluorophenyl)-4-(trifluoromethyl)-1-pyrazolyl]-2-aza-2-spiro[3.3]heptyl}methanone]
AUClast: 464.42 ng·h/mL
